Columns and labels:
MAO A = target: T1, MAO A (Rattus norvegicus, UniProt P21396); experiment: Monoamine oxidase A; format: biochemical; conditions: for inhibition at 100 µM: read-out: MAO A % inhibition; for selective inhibition toward MAO A: MAO A versus MAO B; for selective inhibition toward MAO A / dual inhibition on MAO A and MAO B: in words; for dual inhibition on MAO A and MAO B: both isoforms
T1 sequence (P21396 1-526): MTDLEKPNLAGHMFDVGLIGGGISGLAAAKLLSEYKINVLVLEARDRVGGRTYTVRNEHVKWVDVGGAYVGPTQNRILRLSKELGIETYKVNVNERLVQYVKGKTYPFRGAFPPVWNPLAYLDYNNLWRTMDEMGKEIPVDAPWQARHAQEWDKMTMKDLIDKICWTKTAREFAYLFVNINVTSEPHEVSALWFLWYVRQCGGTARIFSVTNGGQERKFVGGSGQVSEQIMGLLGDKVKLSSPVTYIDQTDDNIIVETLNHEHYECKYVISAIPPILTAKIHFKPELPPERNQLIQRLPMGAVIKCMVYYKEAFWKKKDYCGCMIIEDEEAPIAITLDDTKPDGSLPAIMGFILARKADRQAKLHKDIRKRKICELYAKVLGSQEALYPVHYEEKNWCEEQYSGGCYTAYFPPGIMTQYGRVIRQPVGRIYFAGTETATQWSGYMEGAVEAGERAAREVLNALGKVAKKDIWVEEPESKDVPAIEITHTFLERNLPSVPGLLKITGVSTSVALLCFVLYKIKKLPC

MAO B = target: T2, MAO B (Rattus norvegicus, UniProt P19643); experiment: Monoamine oxidase B; format: biochemical; conditions: for selective inhibition toward MAO B: MAO B versus MAO A, in words; for inhibition at 100 µM: read-out: MAO B % inhibition
T2 sequence (P19643 1-520): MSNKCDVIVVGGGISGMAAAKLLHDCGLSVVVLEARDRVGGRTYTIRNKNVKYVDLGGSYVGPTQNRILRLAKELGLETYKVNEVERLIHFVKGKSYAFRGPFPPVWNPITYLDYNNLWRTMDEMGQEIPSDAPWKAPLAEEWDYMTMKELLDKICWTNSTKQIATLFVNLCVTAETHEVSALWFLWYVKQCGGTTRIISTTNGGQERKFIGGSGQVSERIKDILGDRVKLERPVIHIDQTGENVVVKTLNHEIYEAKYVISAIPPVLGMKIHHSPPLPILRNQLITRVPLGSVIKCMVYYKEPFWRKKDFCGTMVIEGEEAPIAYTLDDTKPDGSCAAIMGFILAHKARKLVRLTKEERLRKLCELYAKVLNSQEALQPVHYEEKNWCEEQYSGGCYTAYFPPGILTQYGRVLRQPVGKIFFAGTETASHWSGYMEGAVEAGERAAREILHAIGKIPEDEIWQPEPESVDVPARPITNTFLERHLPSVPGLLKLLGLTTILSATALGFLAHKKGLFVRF

`CC(=NN=C1CS(=O)(=O)N(C)c2ccccc21)c1ccc([N+](=O)[O-])s1` [9i, 1-Methyl-4-((1-(5-nitrothiophen-2-yl)ethylidene)hydrazono)-3,4-dihydro-1H-benzo[c][1,2]thiazine 2,2-dioxide] was tested, and the inhibition at 100 µM (MAO A) was 39.8% and the “selective inhibition toward MAO B” value (MAO B) was “selective inhibition toward the MAO B enzyme”.

`CC(=NN=C1CS(=O)(=O)N(C)c2ccccc21)c1ccc(C)s1` [9d, 1-Methyl-4-((1-(5-methylthiophen-2-yl)ethylidene)hydrazono)-3,4-dihydro-1H-benzo[c][1,2]thiazine 2,2-dioxide] was tested, and the “selective inhibition toward MAO A” value (MAO A) was “significant selective inhibition toward MAO A” and the inhibition at 100 µM (MAO B) was 31.1%.

In the case of `CC(=NN=C1CS(=O)(=O)N(C)c2ccccc21)c1cc(Cl)sc1Cl` [9k, 4-((1-(2,5-Dichlorothiophen-3-yl)ethylidene)hydrazono)-1-methyl-3,4-dihydro-1H-benzo[c][1,2]thiazine 2,2-dioxide], the “dual inhibition on MAO A and MAO B” value (MAO A) is reported as “dual inhibition on MAO A as well as MAO B”.

`Cc1ccc2cc(C=NN=C3CS(=O)(=O)N(C)c4ccccc43)c(Cl)nc2c1` [7d, 4-(((2-Chloro-7-methylquinolin-3-yl)methylene)hydrazono)-1-methyl-3,4-dihydro-1H-benzo[c][1,2]thiazine 2,2-dioxide] was tested, and the “dual inhibition on MAO A and MAO B” value (MAO A) was “dual inhibition on MAO A as well as MAO B”.

For `CN1c2ccccc2C(=NN=Cc2cc3ccc(Cl)cc3nc2Cl)CS1(=O)=O` [7f, 4-(((2,7-Dichloroquinolin-3-yl)methylene)hydrazono)-1-methyl-3,4-dihydro-1H-benzo[c][1,2]thiazine 2,2-dioxide], the “dual inhibition on MAO A and MAO B” value (MAO A) was “dual inhibition on MAO A as well as MAO B” and the inhibition at 100 µM (MAO A) was 2.03 ± 0.91%.

`COc1ccc2cc(C=NN=C3CS(=O)(=O)N(C)c4ccccc43)c(Cl)nc2c1` [7e, 4-(((2-Chloro-7-methoxyquinolin-3-yl)methylene)hydrazono)-1-methyl-3,4-dihydro-1H-benzo[c][1,2]thiazine 2,2-dioxide] was tested, and the “dual inhibition on MAO A and MAO B” value (MAO A) was “dual inhibition on MAO A as well as MAO B”.

In the case of `CC(=NN=C1CS(=O)(=O)N(C)c2ccccc21)c1ccc(Br)s1` [9h, 4-((1-(5-Bromothiophen-2-yl)ethylidene)hydrazono)-1-methyl-3,4-dihydro-1H-benzo[c][1,2]thiazine 2,2-dioxide], the inhibition at 100 µM (MAO A) is reported as 28.4% and the “selective inhibition toward MAO B” value (MAO B) is reported as “selective inhibition toward the MAO B enzyme”.

Work on `CC(=NN=C1CS(=O)(=O)N(C)c2ccccc21)c1sccc1C` [9b, 1-Methyl-4-((1-(3-methylthiophen-2-yl)ethylidene)hydrazono)-3,4-dihydro-1H-benzo[c][1,2]thiazine 2,2-dioxide] yielded an inhibition at 100 µM (MAO A) of 38.5%.

In the case of `COc1ccc2nc(Cl)c(C=NN=C3CS(=O)(=O)N(C)c4ccccc43)cc2c1` [7c, 4-(((2-Chloro-6-methoxyquinolin-3-yl)methylene)hydrazono)-1-methyl-3,4-dihydro-1H-benzo[c][1,2]thiazine 2,2-dioxide], the “selective inhibition toward MAO A” value (MAO A) is reported as “significant selective inhibition toward MAO A” and the inhibition at 100 µM (MAO B) is reported as 35.8%.

Compound `CC(=NN=C1CS(=O)(=O)N(C)c2ccccc21)c1sccc1Cl` [9e, 4-((1-(3-Chlorothiophen-2-yl)ethylidene)hydrazono)-1-methyl-3,4-dihydro-1H-benzo[c][1,2]thiazine 2,2-dioxide] has an inhibition at 100 µM (MAO B) of 41.9%.

In the case of `Cc1ccc2nc(Cl)c(C=NN=C3CS(=O)(=O)N(C)c4ccccc43)cc2c1` [7b, 4-(((2-Chloro-6-methylquinolin-3-yl)methylene)hydrazono)-1-methyl-3,4-dihydro-1H-benzo[c][1,2]thiazine 2,2-dioxide], the “dual inhibition on MAO A and MAO B” value (MAO A) is reported as “dual inhibition on MAO A as well as MAO B”.

`CC(=NN=C1CS(=O)(=O)N(C)c2ccccc21)c1cc(C)sc1C` [9j, 4-((1-(2,5-Dimethylthiophen-3-yl)ethylidene)hydrazono)-1-methyl-3,4-dihydro-1H-benzo[c][1,2]thiazine 2,2-dioxide] was tested, and the inhibition at 100 µM (MAO A) was 26.3% and the “selective inhibition toward MAO B” value (MAO B) was “selective inhibition toward the MAO B enzyme”.

With `CC(=NN=C1CS(=O)(=O)N(C)c2ccccc21)c1ccc(Cl)s1` [9g, 4-((1-(5-Chlorothiophen-2-yl)ethylidene)hydrazono)-1-methyl-3,4-dihydro-1H-benzo[c][1,2]thiazine 2,2-dioxide] the “dual inhibition on MAO A and MAO B” value (MAO A) was “dual inhibition on MAO A as well as MAO B”.

In the case of `CC(=NN=C1CS(=O)(=O)N(C)c2ccccc21)c1sccc1Br` [9f, 4-((1-(3-Bromothiophen-2-yl)ethylidene)hydrazono)-1-methyl-3,4-dihydro-1H-benzo[c][1,2]thiazine 2,2-dioxide], the inhibition at 100 µM (MAO A) is reported as 41.6% and the “selective inhibition toward MAO B” value (MAO B) is reported as “selective inhibition toward the MAO B enzyme”.

`CN1c2ccccc2C(=NN=Cc2cc3ccccc3nc2Cl)CS1(=O)=O` [7a, 4-(((2-Chloroquinolin-3-yl)methylene)hydrazono)-1-methyl-3,4-dihydro-1H-benzo[c][1,2]thiazine 2,2-dioxide] gave an inhibition at 100 µM (MAO A) of 38.8% and an inhibition at 100 µM (MAO B) of 43.6%.

`CC(=NN=C1CS(=O)(=O)N(C)c2ccccc21)c1cc(C)cs1` [9c, 1-Methyl-4-((1-(4-methylthiophen-2-yl)ethylidene)hydrazono)-3,4-dihydro-1H-benzo[c][1,2]thiazine 2,2-dioxide] was tested, and the inhibition at 100 µM (MAO A) was 39.1%.

`CC(=NN=C1CS(=O)(=O)N(C)c2ccccc21)c1cccs1` [9a, 1-Methyl-4-((1-(thiophen-2-yl)ethylidene)hydrazono)-3,4-dihydro-1H-benzo[c][1,2]thiazine 2,2-dioxide] was tested, and the inhibition at 100 µM (MAO A) was 2.09 ± 0.89%.

— paper PMC9828044 (RSC Advances, 2023)
